# Literature values as cited in publication PMC6172068 (Cancer Science, 2018).
# Legend:
# AML [1] = conditions: single agent; cited from earlier work
# AML [2] = conditions: sorafenib plus intensive chemotherapy, patients aged <60 years; cited from earlier work
# [3] = system: FLT3 mutation-positive R/R AML; conditions: cited from earlier work
compound,measurement,setting,value
CO[C@@H]1[C@H](N(C)C(=O)c2ccccc2)C[C@H]2O[C@]1(C)n1c3ccccc3c3c4c(c5c6ccccc6n2c5c31)C(=O)NC4 [midostaurin],CR,AML [1],not achieved
CNC(=O)c1cc(Oc2ccc(NC(=O)Nc3ccc(Cl)c(C(F)(F)F)c3)cc2)ccn1 [sorafenib],3-year event-free survival rate,AML [2],40%
CC1(COc2ccc3c(c2)ncn3-c2ccc3cccc(N4CCC(N)CC4)c3n2)COC1 [crenolanib],antileukemic activity,[3],strong antileukemic activity
